In patent publication US6380177B1, “LPA analogs as agonists of the Edg2 LPA receptor” (Atairgin Technologies, Inc., priority 1999, dated 2002):
Entries after “also recorded” stand apart in the source; their conditions may differ.

How the values were obtained:
Edg2 receptor [1] = biological target: T1, Edg2 receptor (Homo sapiens, UniProt Q92633); test: FUS1::lacZ reporter assay in yeast expressing the Edg2 receptor; format: cell-based; conditions: for activation of FUS1::lacZ by 18:1 analogs (FIG. 4): 200 μM LPA or LPA analog, 18:1 acyl LPA as 100%
T1 construct: expressed in transfected cells; host or cells: Saccharomyces cerevisiae JEY5 + pJE15
From the text: A yeast expressing the Edg2 receptor is one way to avoid such problems of multiple receptors. Edg2 has been functionally expressed in the yeast Saccharomyces cerevisiae and provides a facile system with which to analyze this particular receptor. Edg2 couples to the yeast pheromone response pathway selectively in response to exogenously added LPA and activates two easily assayed reporter genes, lacZ and HIS3, that are fused to the pheromone-inducible FUS1 promoter. […] Although the yeast assay is relatively insensitive to LPA compared with mammalian signaling events (the yeast assay has an E.C.50 of 20 μM), yeast offers the advantage of specificity; the induction of FUS1::lacZ by LPA is absolutely dependent on the Edg2 receptor being expressed.
LacZ assays in response to lysophosphatidic acid and LPA analogs- JEY5+pJE15 was grown on SC media containing either 2% galactose or 2% glucose lacking uracil to an approximate O.D. of 0.1-0.5 prior to the addition of lipid or α-factor. Acyl-LPA chain length analogs; 6:0, 10:0, 14:0, 16:0, 18:0, 18:1 and 24:1 (Avanti Polar Lipids) were stored dissolved in chloroform and dried down under vacuum immediately prior to experiments and resuspended in BBS/EDTA (50 mM NH4HCO3, 104 mM NaCl, 250 μM EDTA2Na pH 7.63) at 20 mM with sonication until the solution was clear. The other analogs that were custom synthesized for this report were stored in 100% ethanol at −20° C., dried and resuspended in BBS/EDTA immediately prior to use. Analogs not having a phosphate were stored in 100% DMSO and added directly to the yeast culture. […] Cells were grown for 7 hours prior to assaying at which time 100 μl of yeast culture were then added to […] assay buffer (60 mM Na2HPO4, 40 mM NaH2PO4, 10 mM KCl, 0.1 mM MgSO4, pH 7.0 plus 2.7 mL β-mercaptoethanol per liter) plus 50 μl 0.1% SDS+three drops Chloroform. Cells were vortexed for 10 seconds and incubated for 5 minutes at 28° C. 200 μl of 4mg/ml o-nitrophenol-β-D-galactopyranoside (ONPG, Sigma) was added and the reaction was incubated 30 minutes at 28° C. The assay was stopped by the addition of 500 μl 1M Na2CO3. Color development was measured at A420 and normalized to A600. Units were expressed as Miller Units. Competition assays between 18:1 acyl-LPA and the short chain analogs were essentially performed in the same manner except that both lipids were added simultaneously and the yeast was allowed to grow for the standard seven-hour time period. ERK immune complex kinase assays- C3H/10T½ cells were cultured in Basal Medium Eagle (BME, Gibco)+10% heat inactivated fetal calf serum until quiescent in 6 cm dishes. Cultures were serum starved for 18 hours in BME and stimulated with LPA or an LPA analog for 5 minutes. Dishes were placed on ice, washed with ice cold PBS and lysed in 500 μL lysis buffer (20 mM Tris pH8.0, 137 mM NaCl, 1mM EGTA, 1% Triton X-100, 10% glycerol, 15 mM MgCl2, 1 mM NaVO4, 50 mM NaF, 1mM Pefabloc, 20 μM Leupeptin, 10 μg/mL Aprotinin). To 200 μg total protein, 2 μL anti-ERK1 and 2 μL anti-ERK2 (Santa Cruz) plus 20 μL protein G-agarose beads (Boehringer-Mannheim, 50% slurry) were added and incubated with continuous rocking for two hours at 4° C. The agarose bead-ERK immune complexes were washed twice with 1mL lysis buffer then once in 1mL kinase buffer (30 mM Tris pH 8.0, 20 mM MgCl2, 2 mM MnCl2) and then drained to dryness with a fine gauge Hamilton syringe. The kinase reaction was started by adding 30 μL kinase buffer containing 2 μg myelin basic protein (MBP, Sigma), 10 μM cold ATP and 2.5 μCi [^32P]γ-ATP (Amersham). The reaction was incubated for 25 minutes at 30° C. and then stopped by the addition of 10 μL hot 4×-sample buffer. The phosphorylated MBP was resolved on a 14% SDS-PAGE gel (Novex), stained, dried and the Coomassie Brilliant Blue-stained band was excise and counted on a liquid scintillation counter (Beckman).

ERK1 and ERK2 = test: ERK immune complex kinase assay in C3H/10T½ fibroblasts; format: cell-based, Murine; conditions: C3H/10T½ fibroblasts treated with 10M analogue, stimulated 5 minutes
Procedure: Since Edg2 couples to Gpa1, this receptor could also couple to Gi in mammalian cells as well. […] Murine C3H/10T½ fibroblasts were treated with […] analogue and assayed for induction of ERK½ activity. […] The structural requirements of LPA with respect to ERK activation are quite different from the yeast Edg2 lacZ reporter assay. For example, the hydroxyl on the sn-2 carbon of the glycerol can be substituted with little effect in the Edg2-mediated activation of FUS1::lacZ whereas in ERK activation, loss of this hydroxyl almost completely abolishes activity.
LacZ assays in response to lysophosphatidic acid and LPA analogs- JEY5+pJE15 was grown on SC media containing either 2% galactose or 2% glucose lacking uracil to an approximate O.D. of 0.1-0.5 prior to the addition of lipid or α-factor. […] Color development was measured at A420 and normalized to A600. Units were expressed as Miller Units. […] The phosphorylated MBP was resolved on a 14% SDS-PAGE gel (Novex), stained, dried and the Coomassie Brilliant Blue-stained band was excise and counted on a liquid scintillation counter (Beckman).

Edg2 receptor [2] = biological target: T1, Edg2 receptor; conditions: cited from earlier work; for activation of FUS1::lacZ (previously known): yeast expressing the Edg2 receptor, previously known results
MDA MB 231 cells [3] = conditions: cited from earlier work
MDA MB 231 cells [4] = conditions: cited from earlier work; remark: listed apart in the source
ERK = ERK activity in A549 lung carcinoma overexpressing Edg2 mRNA; format: cell-based; conditions: overexpresses Edg2 mRNA
From the text: Edg2 is not involved in the activation of the MAPKinase ERK. This is somewhat surprising since Edg2 coupled to the endogenous Saccharomyces G-protein, it was reasonable to conclude that Edg2 may couple to mammalian Gi heterotrimeric G-proteins. If this were true, then Edg2 would activate ERK, which is activated by LPA in a pertusis toxin-dependent manner. However, the SAR of LPA for ERK activation is completely different from the SAR of LPA-mediated activation of FUS1::lacZ and calcium mobilization. It is unlikely that expressing this receptor in yeast has changed its ligand binding characteristics. The somatostatin 2A receptor when expressed in yeast maintains it's binding profiles when compared with mammalian cells.

T1 sequence (Q92633 whole entry): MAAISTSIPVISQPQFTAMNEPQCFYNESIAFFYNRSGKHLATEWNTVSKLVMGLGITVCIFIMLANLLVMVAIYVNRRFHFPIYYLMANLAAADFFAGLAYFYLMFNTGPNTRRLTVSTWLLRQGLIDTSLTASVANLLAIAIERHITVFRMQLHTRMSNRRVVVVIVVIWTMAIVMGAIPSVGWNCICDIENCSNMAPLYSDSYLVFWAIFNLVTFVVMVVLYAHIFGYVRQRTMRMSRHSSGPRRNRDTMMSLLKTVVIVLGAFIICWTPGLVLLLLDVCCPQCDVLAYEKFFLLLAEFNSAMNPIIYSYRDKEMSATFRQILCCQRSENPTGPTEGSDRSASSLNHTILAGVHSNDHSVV

Compound	activation of FUS1::lacZ by 18:1 analogs (FIG. 4) (Edg2 receptor [1])	activation of FUS1::lacZ (previously known) (Edg2 receptor [2])	further results
CCCCCCCC/C=C\CCCCCCCC(=O)OCC(CO)OC (racemic) [Compound 17, 1-O-Oleoyl-2-O-methyl-rac-glycerol]	still retained some lacZ activity		
CCCCCCCC/C=C\CCCCCCCC(=O)OCC(COP(=O)(OC)OC)OC (racemic) [Compound 18, Dimethyl 3-O-oleoyl-2-O-methyl-rac-glycero-1-phosphate]	had less lacZ activity		
CCCCCCCC/C=C\CCCCCCCC(=O)OCC(Br)COP(=O)(O)O (racemic) [Compound 23, 3-O-Oleoyl-2-deoxy-2-bromo-rac-glycero-1-phosphate]	retained some FUS1::lacZ activity		
CCCCCCCC/C=C\CCCCCCCCOCC(O)COP(=O)(O)O (racemic) [Compound 26, 3-O-Oleyl-rac-glycero-1-phosphate]	inactive		activation of ERK½ (FIG. 5) (ERK1 and ERK2): can activate ERK almost as well as the ester form
CCCCCCCC/C=C\CCCCCCCCOCC(COP(=O)(O)O)OC (racemic) [Compound 36, 3-O-Oleyl-2-O-methyl-rac-glycero-1-phosphate]	inactive		
CCCCCC(=O)OC[C@@H](O)COP(=O)(O)O [Compound 1]		inactive	
CCCCCCCCCC(=O)OC[C@@H](O)COP(=O)(O)O [Compound 2]		inactive	
CCCCCCCCCCCCCC(=O)OC[C@@H](O)COP(=O)(O)O [Compound 3, reference compound]			activation of FUS1::lacZ, dependence on acyl chain length (FIG. 2) (Edg2 receptor [1]; yeast expressing the Edg2 receptor, acyl-LPA chain length analogs): inactive
CCCCCCCCCCCCCCCC(=O)OC[C@@H](O)COP(=O)(O)O [Compound 4]		significant activity	
CCCCCCCCCCCCCCCCCC(=O)OC[C@@H](O)COP(=O)(O)O [Compound 5]		significant activity	
CCCCCCCC/C=C\CCCCCCCC(=O)OC[C@@H](O)COP(=O)(O)O [Compound 6]		most active	
CCCCCCCC/C=C\CCCCCCCC(=O)OCCCO [Compound 10, 3-Hydroxypropyl oleate]	still retained some lacZ activity		
CCCCCCCC/C=C\CCCCCCCC(=O)OCCCOP(=O)(OC)OC [Compound 11, Dimethyl 1-(3-propyl oleoate) phosphate]	had less lacZ activity		
CCCCCCCC/C=C\CCCCCCCC(=O)OCCCOP(=O)(O)O [Compound 12, 1-(3-propyl oleoate) phosphate]	retained some FUS1::lacZ activity; also recorded: increased activity significantly; also recorded: does activate FUS1::lacZ		activation of ERK½ (FIG. 5) (ERK1 and ERK2): does not activate ERK; inhibition of cAMP accumulation (MDA MB 231 cells [3]): does not inhibit cAMP accumulation; calcium mobilization (MDA MB 231 cells [4]): only slightly mobilizes calcium
CCCCCCCC/C=C\CCCCCCCCOCCCOP(=O)(OC)OC [Compound 29, Dimethyl 3-oleyloxypropyl-1-phosphate]	inactive		
O-acyl-2-hydroxyl-sn-glycero-3-phosphate [LPA]			stimulation of ERK activity (ERK): does not stimulate ERK activity; EC50 (Edg2 receptor [2]; yeast expressing Edg2, FUS1::lacZ reporter, read-out: E.C.50 of the yeast assay): 20 µM
